Source: patent publication US20190105337A1, “METHODS OF TREATING BACTERIAL INFECTIONS” (priority 2015, published 2019)
Values after ≈ are worked out from the molar mass of the structure shown. Read-outs that look alike come from different tables or passages of the source.

Experiments:
[1] = test system: P. aeruginosa strains; assay: MIC by broth microdilution (CLSI), P. aeruginosa strains; assay type: cell-based; conditions: Pseudomonas aeruginosa
[2] = Example 2: treatment emergent adverse events, single dose phase; assay type: in vivo, human; conditions: Pooled Meropenem alone
Protocol: (§1) The combination of both drugs was administered on day 7. All drugs were infused over 3 hours. Plasma and urine samples were obtained and assayed using validated HPLC/MS methods.
No subjects discontinued due to AEs and no SAEs were observed.

[3] = Example 3: adverse events during the multiple dose phase; assay type: in vivo, human
Protocol: (§2) All infusions were administered over 3 hours. Intensive plasma and urine PK sampling was obtained after dosing and assayed using validated HPLC/MS methods.
Table 7 summarizes the number (%) of subjects with at least one treatment emergent AE and number of adverse events during the multiple dose phase. […] All AEs, except 2 were mild or moderate in severity. […] There is no evidence that the addition of Compound I changed the AE profile of meropenem.

[4] = clinical; conditions: human, in vivo
Protocol: as §1

[5] = clinical; conditions: human, in vivo; remark: listed apart in the source
Protocol: as §2

SMILES: C[C@@H](O)[C@H]1C(=O)N2C(C(=O)O)=C(S[C@@H]3CN[C@H](C(=O)N(C)C)C3)[C@H](C)[C@H]12 [meropenem, Meropenem]
- MIC ([1]; P. aeruginosa PAM3210, read-out: MIC): 2 µg/mL (≈ 5.22 µM)
- MIC ([1]; P. aeruginosa PAM3353, read-out: MIC): 8 µg/mL (≈ 20.9 µM)
- MIC ([1]; P. aeruginosa PAM3377, read-out: MIC): 4 to 8 µg/mL (≈ 10.4 to 20.9 µM)
- MIC ([1]; read-out: Meropenem (w/ 8 mg/L Compound I) MIC, P. aeruginosa PAM3210, w/ 8 mg/L Compound I): 2 µg/mL (≈ 5.22 µM)
- MIC ([1]; read-out: Meropenem (w/ 8 mg/L Compound I) MIC, P. aeruginosa PAM3353, w/ 8 mg/L Compound I): 8 µg/mL (≈ 20.9 µM)
- MIC ([1]; read-out: Meropenem (w/ 8 mg/L Compound I) MIC, P. aeruginosa PAM3377, w/ 8 mg/L Compound I): 4 to 8 µg/mL (≈ 10.4 to 20.9 µM)
- MIC ([1]; read-out: Meropenem MIC, P. aeruginosa PAM3210): 2 µg/mL (≈ 5.22 µM)
- MIC ([1]; read-out: Meropenem MIC, P. aeruginosa PAM3353): 8 µg/mL (≈ 20.9 µM)
- MIC ([1]; read-out: Meropenem MIC, P. aeruginosa PAM3377): 4 to 8 µg/mL (≈ 10.4 to 20.9 µM)
- Headache, % [2]: 37%
- Infusion site pain, % [2]: 10%
- PK catheter site hematoma, % [2]: 21%
- PK catheter site pain, % [2]: 10%
- Subjects with TEAEs, % [2]: 95%
- AEs, Number of Events ([3]; Pooled 2 g Meropenem): [24]
- Moderate or Severe AEs, N subjects ([3]; Pooled 2 g Meropenem): 0
- Subjects with at least one Treatment Emergent AE, % ([3]; Pooled 2 g Meropenem): 80%
- AEs, Number of Events ([3]; Pooled Meropenem (1 and 2 g)): [67]
- Moderate or Severe AEs, % subjects ([3]; Pooled Meropenem (1 and 2 g)): 24%
- Moderate or Severe AEs, N subjects ([3]; Pooled Meropenem (1 and 2 g)): 5
- Moderate or Severe AEs, Number of Events ([3]; Pooled Meropenem (1 and 2 g)): [5]
- Subjects with at least one Treatment Emergent AE, % ([3]; Pooled Meropenem (1 and 2 g)): 95%
- Mild nausea ([3]; alone or in combination): observed only in the subjects who received meropenem 2 g
- AUC(0-∞) [4]: 130.34 µg·h/mL
- Cmax [4]: 42540 ng/mL
- half-life ([4]; Half-Life): 58.8 min
- clearance ([4]; Plasma Clearance): 334 mL/min
- Vd ([4]; Vss): 25.9 L
- AUC(0-∞) [5]: 130.34 µg·h/mL
- Cmax [5]: 42540 ng/mL
- half-life ([5]; Half-Life): 58.8 min
- clearance ([5]; Plasma Clearance): 334 mL/min
- Vd ([5]; Vss): 25.9 L
